Data published in patent US10413583B2, “Synthetic substrates for enzymes that catalyze reactions of modified cysteines and related methods” (The University of Chicago, priority 2016, dated 2019).

Experiments:
[1] = test system: HEK293T cells; assay: Fluorescence imaging of RDP-1 and RDP-2 with HEK293T cells; format: cell-based, human; conditions: for change in depalmitoylation activity from RDP-1: 10 μM inhibitor 30 min
Experimental: HEK293T were plated with […] of DMEM (Gibco, Gaithersburg, Md., United States of America; High Glucose, Glutamax, 10% FBS) a four well chambered imaging dish (D35C4-20-1.5-N, Cellvis, Mountain View, Calif., United States of America) which were precoated with 4 μg Poly-D-lysine (30-70 kilodalton (KDa), Alfa Aesar, Haverhill, Mass., United States of America) for 2 h at room temperature or overnight at 4° C. and grown to ca. 80% confluence prior to imaging. 30 min before the addition of the RDP, the cell culture media was removed and cells were washed with 500 μL of serum-free DMEM (Gibco, Gaithersburg, Md., United States of America, High Glucose, Glutamax, no FBS). The media was then replaced with 500 μL of serum-free DMEM containing 100 nM Mitotracker Deep Red (Thermo Fisher Scientific, Waltham, Mass., United States of America; to assist in focusing and processing) and either 0.1% DMSO carrier as a control or Palm B, ML348, or ML349 in DMSO and incubated for 30 min at 37° C. and 5% CO2. The media was removed, the cells were washed with 500 μL of Live Cell Imaging Solution (Thermo Fisher Scientific, Waltham, Mass., United States of America), and 500 μL of 1 μM RDP-1 or RDP-2 along with the appropriate inhibitor or DMSO as control in Live Cell Imaging Solution was added to each well. After incubation for 10 min at 37° C. and 5% CO2, the cells were washed with 500 μL Live Cell Imaging Solution and 500 μL of Live Cell Imaging Solution containing DMSO or the appropriate inhibitor was added to the cells immediately before images were obtained on an inverted epi-fluorescence microscope (Olympus IX83; Olympus Corporation, Tokyo, Japan) attached with EMCCD camera (Photometrics EVOLVE™ Delta; Photometrics, Tucson, Ariz., United States of America) with 40× oil objective (N/A 1.3) for RDP-1 (excitation filter 1 430/24 nm, dichroic chroma 89007, emission filter 1 470/24 nm, exposure time 100 ms, EM gain 80, excitation filter 2 480/20 nm, dichroic chroma 49014, emission filter 2 575/40 nm, exposure time 70 ms, EM gain 50) or for RDP-2 (excitation filter 1 430/24 nm, dichroic chroma 89007, emission filter 1 470/24 nm, exposure time 70 ms, EM gain 50, excitation filter 2 480/20, dichroic chroma 49014, emission filter 2 575/40 nm, exposure time 50 ms, EM gain 30), brightfield (exposure time 50 ms, EM gain 30), and MitoTracker Deep Red: (excitation filter 640/30 nm, emission filter 705/72 nm, dichroic chroma 89016, exposure time 15 ms, EM gain 15). Analyses were performed in ImageJ as described below. Each experiment was repeated at least three separate times with identical results.
The probe channel data were expressed as a ratio of the blue channel divided by the green channel and normalized to the average fluorescence intensity of the control conditions. To eliminate errors from autofluorescence, the images were thresholded using the bluer channel images at the same minimum level that included the maximum number of cells in focus (as determined visually by the mitocondrial dye) while limiting the signal from areas where cells are not present. The average value of all nonzero pixels from the blue channel:green channel ratio image were calculated in ImageJ for three different measurements from each experiment. The percent deprotected was estimated by imaging RDP-1/2 in buffer (20 mM HEPES, 150 mM NaCl, 0.1% Triton X-100, pH 7.4, 0.1% DMSO) and for dye deprotected with 20 mM DTT in buffer (20 mM HEPES, 150 mM NaCl, 0.1% Triton X-100, pH 7.4, 0.1% DMSO) for 1 h at room temperature before aliquoted into individual tubes and stored at −80° C. A fresh aliquot of the solution was thawed for each experiment and diluted to 250 nM (RDP-1) or 500 nM (RDP-2) in buffer (20 mM HEPES, 150 mM NaCl, 0.1% Triton X-100, pH 7.4, 10 mM DTT) and allowed to equilibrate for 30 m before being imaged. […]

[2] = test system: human colon organoids; assay: Epifluorescent imaging of RDP-2 with human colon organoids; format: cell-based; conditions: 40 μM inhibitor 30 min, 5 μM RDP-2
Experimental: At least 24 h before imaging experiments, cultured colon organoids were split using a 25G needle and 1 mL syringe, pelleted, and 50-100 organoids per well were re-plated in eight-well chambered slides (20 μL droplets/well; 250 μL organoid growth media; Cellvis, Mountain View, Calif., United States of America) for treatment and imaging. 30 min before the addition of RDP-2, the cell culture media was removed and cells were washed with 300 μL of serum-free FluoroBrite DMEM (Gibco, Gaithersburg, Md., United States of America; High Glucose, Glutamax, no FBS). […] After incubation for 10 min at 37° C. and 5% CO2, the cells were washed with 300 μL Live Cell Imaging Solution and 300 μL of Live Cell Imaging Solution containing DMSO or the appropriate inhibitor was added to the cells immediately before images were obtained on an inverted epi-fluorescence microscope (Olympus IX83; Olympus Corporation, Tokyo, Japan) attached with EMCCD camera (Photometrics EVOLVE™ Delta, Photometrics, Tucson, Ariz., United States of America) with 40× oil objective (N/A 1.3) for RDP-2 (excitation filter 1 430/24 nm, dichroic chroma 89007, emission filter 1 470/24 nm, exposure time 150 ms, EM gain 100, excitation filter 2 480/20 nm, dichroic chroma 49014, emission filter 2 575/40 nm, exposure time 75 ms, EM gain 75), brightfield (exposure time 50 ms, EM gain 30). […]

COc1ccc(N2CCN(C(=O)c3cc4c(s3)-c3ccccc3S(=O)(=O)C4)CC2)cc1 [ML349]
increase in depalmitoylation activity, RDP-2 ([1]; 5 μM ML349 30 min, 1 μM RDP-2): about 12%
change in depalmitoylation activity from RDP-1 ([1]; 1 μM RDP-1): slight increase

O=C(CN1CCN(C(=O)c2ccco2)CC1)Nc1cc(C(F)(F)F)ccc1Cl [ML348]
decrease in depalmitoylation activity, RDP-2 ([1]; 5 μM ML348 30 min, 1 μM RDP-2): about 30%
change in depalmitoylation activity from RDP-1 ([1]; 1 μM RDP-1): slight increase
inhibition / decrease of measured S-depalmitoylation, RDP-2 [2]: about 20%

CCCCCCCCCC[C@@H]1C(=O)O[C@H]1CCc1ccc(OC)c(OC)c1 [PalmB, palmostatin B]
decrease of measured depalmitoylation activity, RDP-1 ([1]; 20 μM PalmB 30 min pretreatment, 1 μM RDP-1): almost in half
decrease of measured depalmitoylation activity, RDP-2 ([1]; 20 μM PalmB 30 min pretreatment, 1 μM RDP-2): almost in half
inhibition / decrease of measured S-depalmitoylation, RDP-2 [2]: about 50%
